This note sets out measurements from paper PMC7619633, “Targeting of multiple tumor-associated antigens by individual T cell receptors during successful cancer immunotherapy” (Cell, 2023).

The test system of assay [1] is MEL5 and MEL8 TCRs, MM909.24 TIL. The assay is described as follows: Recognition of the 9-mer BST2 peptide (MIP-1β ELISA and tetramer staining). The note with it: Figures S7C–S7F. The format is cell-based, human. Background: ELISA stands for enzyme-linked immunosorbent assay.
Protocol: In brief, tetramers were assembled by 5 consecutive 20 min incubations of PE or APC conjugated streptavidin (both from Life Technologies) with pMHC monomer at 1:4 molar ratio, on ice in the dark. Once assembled, 1:100 protease inhibitor (set 1, Merk, London, UK) and PBS was added to a working concentration of 0.1 mg mL^-1 (with regards to the pMHC component). Tetramers were stored at 4°C in the dark and used within 3 days of assembly. To remove aggregates, tetramers were centrifuged at full speed in a microfuge for 1 min immediately before staining samples. Tetramer staining was performed as previously described.[52],[53] Briefly, T cell clones, lines, TILs or Jurkat cells were pre-treated with 50 nM of the protein kinase inhibitor Dasatinib at 37°C for 10-30 min in 100 µL of FACS buffer (PBS with 2% FBS), followed by the addition of 0.5 µg tetramer (with respect to pMHC component) without washing or pre-chilling, and incubated for 30 min on ice and in the dark. Cells were then washed in PBS and stained with VIVID for 5 mins at room temperature. […]
T cells were ‘rested’ overnight in R5 medium (R10 but with 5% FBS) to help reduce spontaneous release of chemokines and cytokines. […] T cell activation towards peptide was determined by MIP-1β release, and for cancer or healthy cell targets it was determined by TNF release. […]
A further assay has as its system MM909.15 TIL. The assay is described as follows: HLA A*03:01-TAG tetramer staining of TIL from patient MM909.15. The format is binding, human. The protocol: (§1) Staining was performed in 5 mL polystyrene test tubes (1 wash per step) or 96U well plates (3 washes per step), using 0.5-1 x10^5 cells per sample. Dead cells were detected with 2 µL of a 1:40 PBS dilution of LIVE/DEAD® Fixable Violet Dead Stain Kit (VIVID). Samples were acquired on a BD FACSCanto II (BD Biosciences, Franklin Lakes, NJ, USA) or ACEA NovoCyte 3005 with NovoSampler pro (ACEA Biosciences, Agilent, CA, US), then analyzed with FlowJo software (Tree Star Inc., Ashland, Oregon, US). Cells were gated on FSC-A versus SSC-A, single cells (FSC-A versus FSC-H), then viable cells (marker of choice versus VIVID). Cell sorting was performed on a BD FACS Aria III (BD Biosciences) by Central Biotechnology Services at Cardiff University. T cells for TCR sequencing were captured in RLT lysis buffer supplemented with 40 mM DTT or RNAprotect reagent (both from Qiagen). T cells or established cell lines sorted for culture were collected in their respective culture media supplemented with 25 µg mL^-1 of Amphotericin B (Thermo Fisher Scientific) and 10 µg mL^-1 of Ciprofloxacin (Ciproxin, Bayer, Leverkusen, Germany).
(§2) Monomeric pMHC were generated in house as described below and used to assemble tetramers as previously described.[52] […]

A further assay concerns MM909.11 TIL. Description: HLA A*03:01-TAG tetramer staining of TIL from patient MM909.11. The format is binding, human. The protocol:
as §1, §2

Consider “LLLGIGILV [BST2_9, previously described 9-mer BST2 peptide]”, for which, in assay [1], the “Recognition by TCRs of this study” value is recorded as “not recognized”.

Regarding “RLSNRLLLR [TAG, HLA A*03:01-restricted peptide from cancer/testis tumor antigen gene (TAG); peptide and tetramer]”, the “% of TIL stained with TAG tetramer” value with MM909.15 TIL (HLA A*03:01-RLSNRLLLR tetramer, MM909.15 TIL (passage-2), Fig S4N) is given as 0.05%; in the assay on MM909.11 TIL (HLA A*03:01-RLSNRLLLR tetramer, MM909.11 TIL (passage-2), Fig S4N), 0.67%. In addition, the “TAG T cells as share of the anti-melanoma response of the TIL” value amounted to 1.1% with MM909.15 TIL (MM909.15, from % tetramer+ cells and TIL reactivity toward autologous melanoma); 17.5% with MM909.11 TIL (MM909.11, from % tetramer+ cells and TIL reactivity toward autologous melanoma).
